Results published in patent publication US10568324B2, “Agricultural and horticultural material, and plant cultivation method which promote coloring in fruit” (AJINOMOTO CO., INC., priority 2015, dated 2020).
In brackets after ≈: the same amount, converted by molar mass. Where two headings read alike, the source gives them in different places.

Experiments:
[1] = system: grape cultured cells (VR calluses); assay: Anthocyanin content in grape calluses treated with various amino acids (Reference Example 1(1)); format: cell-based, Vitis vinifera L.; settings: 5 days
Method: Cells derived from a European grape cell line (Vitis vinifera L.; RIKEN BioResource Center; VR, management number RPC00003) were subcultured on MS agar medium. The subcultured VR calluses (i.e. cell clusters) were each transferred to MS agar medium containing 5 mM of each amino acid solution, and cultured. As a positive control, 100 μM abscisic acid (ABA) was added, which is a known color-promotor. Five days after the transfer, each callus was freeze-dried and ground, and anthocyanin was extracted with a 1% HCl solution in MeOH.

[2] = cited from earlier work
[3] = system: Cabernet Sauvignon grape plants; assay: Effect of isoleucine on coloring of grape berries, sprinkled on bunches in test farm (Reference Example 1(2)); format: in vivo; settings: 10 mM Ile + 0.1% Applauch BI sprinkled on bunches in veraison period; FIG. 1
Method: Cabernet Sauvignon grape plants that had been cultivated in a test farm and had entered into the veraison period were chosen for this experiment. Eight bunches of grapes on each of two grape plants, 16 bunches of grapes in total, were selected for each test group. On each bunch of grapes, about 6.25 mL of 0.1% Applauch BI (Kao, control), 1 g/L of abscisic acid (ABA)+0.1% Applauch BI (positive control), or 10 mM isoleucine (Ile)+0.1% Applauch BI was sprinkled. As samples, 4 bunches for each test group were collected 4 times. Anthocyanin present in the pericarps was extracted with a mixed solution of water and acetone (1:2), and the anthocyanin content was measured in the same manner as described above.

Structure (SMILES)	Relative content of anthocyanin ([1]; 5 mM amino acid in MS agar medium, relative to positive control 100 μM ABA taken as 100%) [%]	solubility in water [2]	anthocyanin content of callus (in words) ([1]; 5 mM amino acid, compared among the amino acids of Table 1)	anthocyanin content in pericarps [3]	solubility in water ([2]; 20° C.) [mg/mL]	solubility in water ([2]; 50° C.) [mg/mL]
C[C@H](N)C(=O)O [Ala]	7	–	–	–	–	–
CC[C@H](C)[C@H](N)C(=O)O [Ile, isoleucine]	–	about 0.3 M	highest anthocyanin content	increased	–	–
CC(C)C[C@H](N)C(=O)O [Leu, leucine]	–	about 0.2 M	–	–	24 (≈ 183 mM)	29 (≈ 221 mM)
N[C@@H](Cc1ccccc1)C(=O)O [Phe, phenylalanine]	–	about 0.2 M	–	–	27 (≈ 163 mM)	40 (≈ 242 mM)
